Here are results for 13 molecules from patent publication US9376425B2, “Heterocyclic compounds as MDM2 inhibitors for the treatment of cancer” (AMGEN INC., priority 2011, dated 2016).

The structures appear in SMILES notation.

By IC50 is commonly meant the point on the concentration scale where inhibition reaches its midpoint. Lower therefore signals greater potency in that assay.

T1 sequence (Q00987 1-188): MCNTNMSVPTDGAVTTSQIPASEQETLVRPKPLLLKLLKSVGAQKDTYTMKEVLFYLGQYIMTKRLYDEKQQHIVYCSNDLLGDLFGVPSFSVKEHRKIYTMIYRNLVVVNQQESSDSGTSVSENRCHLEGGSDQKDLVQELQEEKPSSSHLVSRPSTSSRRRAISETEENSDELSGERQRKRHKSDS

This assay concerns the target T1, human MDM2 (GST-hMDM2 aa 1-188), interaction with biotinylated-p53 (aa 1-83) (Homo sapiens, UniProt Q00987).
T1 construct: Amino acid residues 1-188 of human MDM2 were expressed; made in house; host or cells: Escherichia coli
In words: Homogenous Time-Resolved Fluorescence Assay (HTRF1 assay), inhibition of HDM2-p53 interaction. The format is binding. To be noted: 2.5 nM GST-hMDM2, 5 nM biotinylated-p53, 200 mM KF. The method, boiled down: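 GST-hMDM2 preincubated 20 min at room temperature with serially diluted compound, then biotinylated p53 (aa 1-83, AviTag-TrxA-6xHis fusion) added for 60 min. SA-XLent/anti-GST cryptate detection equilibrated >4 h; final DMSO 2%. Time-resolved fluorescence read; percent inhibition relative to nutlin-3.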
`CCCCN1C(=O)[C@H](CC(=O)O)O[C@H](c2cccc(Cl)c2)[C@H]1c1ccc(Cl)cc1` [Example 40, 2-((2S,5R,6R)-4-Butyl-6-(3-chlorophenyl)-5-(4-chlorophenyl)-3-oxomorpholin-2-yl)acetic acid] gave an IC50 of 700 nM.
`O=C(O)C[C@@H]1O[C@H](c2cccc(Cl)c2)[C@@H](c2ccc(Cl)cc2)N(Cc2ncco2)C1=O` [Example 43, 2-((2S,5R,6R)-6-(3-Chlorophenyl)-5-(4-chlorophenyl)-4-(oxazol-2-ylmethyl)-3-oxomorpholin-2-yl)acetic acid]: the concentration for half-maximal inhibition (IC50) turned out to be 1100 nM.
In turn, `CCN1C(=O)[C@@H](CC(=O)O)O[C@H](c2cccc(Cl)c2)[C@H]1c1ccc(Cl)cc1` [Example 44, 2-((2R,5R,6R)-6-(3-Chlorophenyl)-5-(4-chlorophenyl)-4-ethyl-3-oxomorpholin-2-yl)acetic acid] gave a half-inhibitory concentration (IC50) of 900 nM.
On to `CCN1C(=O)[C@H](CC(=O)O)O[C@H](c2cccc(Cl)c2)[C@H]1c1ccc(Cl)cc1` [Example 45, 2-((2S,5R,6R)-6-(3-Chlorophenyl)-5-(4-chlorophenyl)-4-ethyl-3-oxomorpholin-2-yl)acetic acid], for which half-maximal inhibition (IC50) required 800 nM.
With `C=CCN1C(=O)[C@@H](CC(=O)O)O[C@H](c2cccc(Cl)c2)[C@H]1c1ccc(Cl)cc1` [Example 46, 2-((2R,5R,6R)-4-Allyl-6-(3-chlorophenyl)-5-(4-chlorophenyl)-3-oxomorpholin-2-yl)acetic acid] the figure was 800 nM; with `C=CCN1C(=O)[C@H](CC(=O)O)O[C@H](c2cccc(Cl)c2)[C@H]1c1ccc(Cl)cc1` [Example 47, 2-((2S,5R,6R)-4-Allyl-6-(3-chlorophenyl)-5-(4-chlorophenyl)-3-oxomorpholin-2-yl)acetic acid], 800 nM.
Molecule `CCCN1C(=O)[C@@H](CC(=O)O)O[C@H](c2cccc(Cl)c2)[C@H]1c1ccc(Cl)cc1` [Example 48, 2-((2R,5R,6R)-6-(3-Chlorophenyl)-5-(4-chlorophenyl)-3-oxo-4-propylmorpholin-2-yl)acetic acid] came in with an IC50 of 500 nM.
In turn, `CCCN1C(=O)[C@H](CC(=O)O)O[C@H](c2cccc(Cl)c2)[C@H]1c1ccc(Cl)cc1` [Example 49, 2-((2S,5R,6R)-6-(3-Chlorophenyl)-5-(4-chlorophenyl)-3-oxo-4-propylmorpholin-2-yl)acetic acid] returned an IC50 of 600 nM.
`CCC(CC)N1C(=O)[C@H](CC(=O)O)O[C@H](c2cccc(Cl)c2)[C@H]1c1ccc(Cl)cc1` [Example 53, 2-((2S,5R,6R)-6-(3-Chlorophenyl)-5-(4-chlorophenyl)-3-oxo-4-(pentan-3-yl)morpholin-2-yl)acetic acid] came in with a concentration for half-maximal inhibition (IC50) of 100 nM.
As for `O=C(O)C[C@@H]1O[C@H](c2cccc(Cl)c2)[C@@H](c2ccc(Cl)cc2F)N(CC2CC2)C1=O` [Example 54, 2-((2S,5R,6R)-5-(4-Chloro-2-fluorophenyl)-6-(3-chlorophenyl)-4-(cyclopropylmethyl)-3-oxomorpholin-2-yl)acetic acid], the half-maximal inhibitory concentration (IC50) was 600 nM.
`O=C(O)C[C@@H]1O[C@H](c2cccc(Cl)c2)[C@@H](c2ccccc2)N(CC2CC2)C1=O` [Example 55, 2-((2S,5R,6R)-6-(3-Chlorophenyl)-4-(cyclopropylmethyl)-3-oxo-5-phenylmorpholin-2-yl)acetic acid] had a half-inhibitory concentration (IC50) of 3300 nM.
With `O=C(O)C[C@@H]1O[C@H](c2cccc(Cl)c2)[C@@H](c2ccc(F)cc2)N(CC2CC2)C1=O` [Example 56, 2-((2S,5R,6R)-6-(3-Chlorophenyl)-4-(cyclopropylmethyl)-5-(4-fluorophenyl)-3-oxomorpholin-2-yl)acetic acid] the figure was 700 nM; with `O=C(O)C[C@@H]1O[C@H](c2cccc(Cl)c2)[C@@H](c2ccc(C(F)(F)F)cc2)N(CC2CC2)C1=O` [Example 57, 2-((2S,5R,6R)-6-(3-Chlorophenyl)-4-(cyclopropylmethyl)-3-oxo-5-(4-(trifluoromethyl)phenyl)morpholin-2-yl)acetic acid], 800 nM.
